Test results from article PMC6704710, “Preclinical evaluation of 3D185, a novel potent inhibitor of FGFR1/2/3 and CSF-1R, in FGFR-dependent and macrophage-dominant cancer models” (Journal of Experimental & Clinical Cancer Research : CR, 2019).

Assays:
Assay in all cases: Eurofins kinase panel
Assay type in all cases: biochemical
Conditions in all cases: read-out: Inhibition rate (%)
[1] = molecular target: T1, ErbB2(h) (Homo sapiens, UniProt P04626)
T1 construct: purchased Eurofins (KinaseProfiler)

[2] = molecular target: T2, Ros(h) (Homo sapiens, UniProt P08922)
T2 construct: purchased Eurofins (KinaseProfiler)

[3] = molecular target: T3, NEK7(h) (Homo sapiens, UniProt Q8TDX7)
T3 construct: purchased Eurofins (KinaseProfiler)

[4] = molecular target: T4, TBK1(h) (Homo sapiens, UniProt Q9UHD2)
T4 construct: purchased Eurofins (KinaseProfiler)
T4 sequence (Q9UHD2 1-729): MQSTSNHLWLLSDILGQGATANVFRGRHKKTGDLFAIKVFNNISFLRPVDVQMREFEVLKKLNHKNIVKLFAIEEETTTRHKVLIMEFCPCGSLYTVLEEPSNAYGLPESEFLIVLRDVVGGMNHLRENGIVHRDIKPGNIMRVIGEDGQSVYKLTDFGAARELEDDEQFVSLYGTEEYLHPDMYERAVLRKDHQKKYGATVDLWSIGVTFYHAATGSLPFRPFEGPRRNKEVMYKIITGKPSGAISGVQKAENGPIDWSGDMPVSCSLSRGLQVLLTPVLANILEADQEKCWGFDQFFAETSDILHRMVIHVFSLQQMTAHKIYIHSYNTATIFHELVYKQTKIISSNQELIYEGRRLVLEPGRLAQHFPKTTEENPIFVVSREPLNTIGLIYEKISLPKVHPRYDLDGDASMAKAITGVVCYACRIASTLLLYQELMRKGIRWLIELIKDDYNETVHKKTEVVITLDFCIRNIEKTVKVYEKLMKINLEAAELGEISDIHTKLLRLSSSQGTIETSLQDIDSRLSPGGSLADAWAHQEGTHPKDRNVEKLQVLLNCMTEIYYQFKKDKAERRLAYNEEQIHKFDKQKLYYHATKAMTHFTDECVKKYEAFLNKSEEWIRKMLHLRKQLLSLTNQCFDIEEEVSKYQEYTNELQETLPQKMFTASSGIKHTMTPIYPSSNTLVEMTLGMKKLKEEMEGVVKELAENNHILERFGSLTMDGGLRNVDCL

[5] = molecular target: T5, SIK(h) (Homo sapiens, UniProt P57059)
T5 construct: purchased Eurofins (KinaseProfiler)

[6] = molecular target: T6, MST2(h) (Homo sapiens, UniProt Q13188)
T6 construct: purchased Eurofins (KinaseProfiler)
T6 sequence (Q13188 1-491): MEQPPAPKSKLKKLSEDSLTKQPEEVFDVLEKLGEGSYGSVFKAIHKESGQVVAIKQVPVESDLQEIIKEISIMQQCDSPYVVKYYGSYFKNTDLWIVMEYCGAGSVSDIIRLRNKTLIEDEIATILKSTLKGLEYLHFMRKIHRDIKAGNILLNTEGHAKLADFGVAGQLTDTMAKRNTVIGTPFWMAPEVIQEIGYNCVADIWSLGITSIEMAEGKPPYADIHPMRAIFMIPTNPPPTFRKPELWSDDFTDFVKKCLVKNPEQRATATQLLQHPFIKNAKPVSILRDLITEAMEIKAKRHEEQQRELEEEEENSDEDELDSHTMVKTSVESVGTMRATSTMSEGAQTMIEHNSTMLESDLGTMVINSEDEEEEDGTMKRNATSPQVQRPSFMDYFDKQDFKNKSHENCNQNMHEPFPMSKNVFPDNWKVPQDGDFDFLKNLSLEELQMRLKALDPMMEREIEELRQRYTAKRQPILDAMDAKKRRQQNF

[7] = molecular target: T7, MARK4(h) (Homo sapiens, UniProt Q96L34)
T7 construct: purchased Eurofins (KinaseProfiler)
T7 sequence (Q96L34 1-752): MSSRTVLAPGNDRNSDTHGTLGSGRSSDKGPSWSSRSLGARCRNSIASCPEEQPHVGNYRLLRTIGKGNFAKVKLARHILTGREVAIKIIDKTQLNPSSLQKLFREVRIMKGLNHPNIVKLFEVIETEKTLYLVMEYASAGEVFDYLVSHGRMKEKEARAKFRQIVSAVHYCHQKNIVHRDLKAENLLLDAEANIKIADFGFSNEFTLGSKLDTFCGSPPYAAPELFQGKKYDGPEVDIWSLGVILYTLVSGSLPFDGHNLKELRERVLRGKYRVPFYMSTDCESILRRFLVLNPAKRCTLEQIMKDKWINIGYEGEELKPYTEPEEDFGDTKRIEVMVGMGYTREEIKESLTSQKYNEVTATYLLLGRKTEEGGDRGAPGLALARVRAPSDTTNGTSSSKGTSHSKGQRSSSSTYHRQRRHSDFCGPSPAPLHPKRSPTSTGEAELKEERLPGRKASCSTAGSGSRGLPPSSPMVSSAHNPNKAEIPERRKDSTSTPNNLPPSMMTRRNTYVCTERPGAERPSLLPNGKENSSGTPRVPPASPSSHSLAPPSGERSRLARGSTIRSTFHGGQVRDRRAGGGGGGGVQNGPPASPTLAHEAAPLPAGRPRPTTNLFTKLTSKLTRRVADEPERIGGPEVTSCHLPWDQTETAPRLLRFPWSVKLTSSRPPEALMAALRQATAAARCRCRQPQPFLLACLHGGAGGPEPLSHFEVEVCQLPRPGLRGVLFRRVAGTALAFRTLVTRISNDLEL

[8] = molecular target: T8, CLK1(h) (Homo sapiens, UniProt P49759)
T8 construct: purchased Eurofins (KinaseProfiler)
T8 sequence (P49759 whole entry): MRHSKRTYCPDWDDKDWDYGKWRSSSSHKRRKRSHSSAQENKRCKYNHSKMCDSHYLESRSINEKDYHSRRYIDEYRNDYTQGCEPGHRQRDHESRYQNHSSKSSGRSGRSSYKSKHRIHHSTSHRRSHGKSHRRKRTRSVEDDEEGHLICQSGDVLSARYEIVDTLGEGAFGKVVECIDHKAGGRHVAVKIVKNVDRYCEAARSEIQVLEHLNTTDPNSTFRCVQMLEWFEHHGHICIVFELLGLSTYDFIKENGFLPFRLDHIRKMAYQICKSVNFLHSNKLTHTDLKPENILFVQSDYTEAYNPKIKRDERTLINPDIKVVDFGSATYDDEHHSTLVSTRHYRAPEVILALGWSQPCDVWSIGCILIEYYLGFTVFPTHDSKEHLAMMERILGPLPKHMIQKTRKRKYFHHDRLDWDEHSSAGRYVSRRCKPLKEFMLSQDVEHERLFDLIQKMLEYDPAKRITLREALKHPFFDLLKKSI

T3 sequence (Q8TDX7 whole entry): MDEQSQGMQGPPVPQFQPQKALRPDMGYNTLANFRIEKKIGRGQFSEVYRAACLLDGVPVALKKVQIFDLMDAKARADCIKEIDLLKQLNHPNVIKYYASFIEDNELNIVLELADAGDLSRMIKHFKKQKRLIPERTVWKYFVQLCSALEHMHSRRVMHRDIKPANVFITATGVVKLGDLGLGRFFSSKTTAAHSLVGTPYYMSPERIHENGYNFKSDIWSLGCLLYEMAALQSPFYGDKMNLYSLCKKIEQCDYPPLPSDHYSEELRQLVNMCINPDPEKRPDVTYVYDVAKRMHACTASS
T2 sequence (P08922 28-2347): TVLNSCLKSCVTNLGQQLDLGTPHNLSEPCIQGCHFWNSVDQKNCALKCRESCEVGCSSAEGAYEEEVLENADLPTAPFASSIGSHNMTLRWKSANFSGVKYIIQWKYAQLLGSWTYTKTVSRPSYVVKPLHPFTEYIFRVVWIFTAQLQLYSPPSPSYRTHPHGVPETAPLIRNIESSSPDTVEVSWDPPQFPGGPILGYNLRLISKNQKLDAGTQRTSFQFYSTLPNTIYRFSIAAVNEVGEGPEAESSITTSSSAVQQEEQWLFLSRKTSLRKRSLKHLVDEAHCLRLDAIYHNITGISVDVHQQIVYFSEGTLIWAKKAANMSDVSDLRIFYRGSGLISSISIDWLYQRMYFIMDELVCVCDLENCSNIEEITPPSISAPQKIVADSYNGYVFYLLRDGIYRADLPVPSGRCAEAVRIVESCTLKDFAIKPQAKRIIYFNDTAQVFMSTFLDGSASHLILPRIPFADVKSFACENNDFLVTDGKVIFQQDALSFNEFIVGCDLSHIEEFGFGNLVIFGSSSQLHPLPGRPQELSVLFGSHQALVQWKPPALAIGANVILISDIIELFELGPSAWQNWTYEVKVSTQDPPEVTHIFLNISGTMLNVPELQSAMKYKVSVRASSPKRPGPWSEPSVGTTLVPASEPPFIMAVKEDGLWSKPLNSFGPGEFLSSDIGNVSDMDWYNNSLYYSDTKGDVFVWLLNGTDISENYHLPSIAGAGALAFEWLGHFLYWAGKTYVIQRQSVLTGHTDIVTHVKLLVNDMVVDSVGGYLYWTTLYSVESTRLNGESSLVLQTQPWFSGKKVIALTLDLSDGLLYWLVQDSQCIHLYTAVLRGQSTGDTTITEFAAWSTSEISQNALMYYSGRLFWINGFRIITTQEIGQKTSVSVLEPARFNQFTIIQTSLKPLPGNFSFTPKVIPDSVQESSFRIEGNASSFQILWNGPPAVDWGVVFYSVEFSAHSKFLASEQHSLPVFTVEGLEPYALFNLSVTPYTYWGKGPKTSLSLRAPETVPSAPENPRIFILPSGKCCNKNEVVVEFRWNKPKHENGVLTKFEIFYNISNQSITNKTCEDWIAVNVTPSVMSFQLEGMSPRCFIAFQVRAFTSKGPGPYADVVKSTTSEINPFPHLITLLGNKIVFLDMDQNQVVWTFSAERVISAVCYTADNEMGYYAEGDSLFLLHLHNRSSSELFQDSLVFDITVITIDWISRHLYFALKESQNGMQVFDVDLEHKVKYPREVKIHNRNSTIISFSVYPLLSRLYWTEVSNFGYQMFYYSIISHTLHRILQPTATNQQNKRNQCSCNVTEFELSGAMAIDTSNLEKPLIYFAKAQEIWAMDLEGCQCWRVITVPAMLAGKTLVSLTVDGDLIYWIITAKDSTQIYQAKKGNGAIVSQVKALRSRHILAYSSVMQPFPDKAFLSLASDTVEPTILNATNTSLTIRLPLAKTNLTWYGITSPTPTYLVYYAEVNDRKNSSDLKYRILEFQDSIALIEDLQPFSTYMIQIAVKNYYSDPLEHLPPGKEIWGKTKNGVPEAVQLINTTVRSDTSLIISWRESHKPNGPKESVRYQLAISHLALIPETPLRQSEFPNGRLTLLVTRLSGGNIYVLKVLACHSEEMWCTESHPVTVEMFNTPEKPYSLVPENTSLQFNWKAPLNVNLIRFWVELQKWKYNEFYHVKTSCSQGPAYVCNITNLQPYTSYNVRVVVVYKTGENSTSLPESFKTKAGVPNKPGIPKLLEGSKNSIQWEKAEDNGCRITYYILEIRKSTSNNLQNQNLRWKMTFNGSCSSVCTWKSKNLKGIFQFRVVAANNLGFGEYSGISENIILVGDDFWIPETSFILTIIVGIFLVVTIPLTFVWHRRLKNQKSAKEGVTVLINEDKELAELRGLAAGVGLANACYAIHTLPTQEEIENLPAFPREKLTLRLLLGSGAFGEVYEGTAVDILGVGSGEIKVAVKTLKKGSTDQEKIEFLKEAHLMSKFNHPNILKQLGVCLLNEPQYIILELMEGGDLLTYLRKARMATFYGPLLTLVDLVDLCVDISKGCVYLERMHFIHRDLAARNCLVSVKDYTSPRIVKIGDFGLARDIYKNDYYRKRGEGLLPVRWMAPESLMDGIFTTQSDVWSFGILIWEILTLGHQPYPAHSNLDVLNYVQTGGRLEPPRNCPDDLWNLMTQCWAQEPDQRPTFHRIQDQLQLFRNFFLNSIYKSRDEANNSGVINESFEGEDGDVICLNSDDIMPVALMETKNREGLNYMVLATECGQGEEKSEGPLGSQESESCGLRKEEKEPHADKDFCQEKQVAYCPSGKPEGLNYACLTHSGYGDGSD
T5 sequence (P57059 whole entry): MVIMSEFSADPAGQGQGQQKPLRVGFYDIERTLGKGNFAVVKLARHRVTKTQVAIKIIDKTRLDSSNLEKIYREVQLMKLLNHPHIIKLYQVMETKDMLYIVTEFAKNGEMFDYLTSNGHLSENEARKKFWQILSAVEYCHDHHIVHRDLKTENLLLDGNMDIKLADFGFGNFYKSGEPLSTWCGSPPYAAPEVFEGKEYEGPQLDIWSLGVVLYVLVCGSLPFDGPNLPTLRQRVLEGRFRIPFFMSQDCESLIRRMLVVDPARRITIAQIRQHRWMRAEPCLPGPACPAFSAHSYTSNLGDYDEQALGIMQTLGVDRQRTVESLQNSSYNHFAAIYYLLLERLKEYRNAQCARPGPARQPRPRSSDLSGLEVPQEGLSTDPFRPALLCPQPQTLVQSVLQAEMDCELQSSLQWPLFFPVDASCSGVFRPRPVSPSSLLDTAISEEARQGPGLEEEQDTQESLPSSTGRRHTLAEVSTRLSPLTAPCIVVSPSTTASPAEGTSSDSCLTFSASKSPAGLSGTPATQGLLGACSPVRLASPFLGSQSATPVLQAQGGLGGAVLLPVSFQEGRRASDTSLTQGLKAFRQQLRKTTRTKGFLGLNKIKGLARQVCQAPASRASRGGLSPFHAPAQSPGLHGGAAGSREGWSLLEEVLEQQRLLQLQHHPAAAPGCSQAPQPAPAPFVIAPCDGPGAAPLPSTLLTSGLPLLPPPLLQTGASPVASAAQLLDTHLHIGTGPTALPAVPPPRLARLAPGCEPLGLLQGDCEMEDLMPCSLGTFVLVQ
T1 sequence (P04626 23-1255): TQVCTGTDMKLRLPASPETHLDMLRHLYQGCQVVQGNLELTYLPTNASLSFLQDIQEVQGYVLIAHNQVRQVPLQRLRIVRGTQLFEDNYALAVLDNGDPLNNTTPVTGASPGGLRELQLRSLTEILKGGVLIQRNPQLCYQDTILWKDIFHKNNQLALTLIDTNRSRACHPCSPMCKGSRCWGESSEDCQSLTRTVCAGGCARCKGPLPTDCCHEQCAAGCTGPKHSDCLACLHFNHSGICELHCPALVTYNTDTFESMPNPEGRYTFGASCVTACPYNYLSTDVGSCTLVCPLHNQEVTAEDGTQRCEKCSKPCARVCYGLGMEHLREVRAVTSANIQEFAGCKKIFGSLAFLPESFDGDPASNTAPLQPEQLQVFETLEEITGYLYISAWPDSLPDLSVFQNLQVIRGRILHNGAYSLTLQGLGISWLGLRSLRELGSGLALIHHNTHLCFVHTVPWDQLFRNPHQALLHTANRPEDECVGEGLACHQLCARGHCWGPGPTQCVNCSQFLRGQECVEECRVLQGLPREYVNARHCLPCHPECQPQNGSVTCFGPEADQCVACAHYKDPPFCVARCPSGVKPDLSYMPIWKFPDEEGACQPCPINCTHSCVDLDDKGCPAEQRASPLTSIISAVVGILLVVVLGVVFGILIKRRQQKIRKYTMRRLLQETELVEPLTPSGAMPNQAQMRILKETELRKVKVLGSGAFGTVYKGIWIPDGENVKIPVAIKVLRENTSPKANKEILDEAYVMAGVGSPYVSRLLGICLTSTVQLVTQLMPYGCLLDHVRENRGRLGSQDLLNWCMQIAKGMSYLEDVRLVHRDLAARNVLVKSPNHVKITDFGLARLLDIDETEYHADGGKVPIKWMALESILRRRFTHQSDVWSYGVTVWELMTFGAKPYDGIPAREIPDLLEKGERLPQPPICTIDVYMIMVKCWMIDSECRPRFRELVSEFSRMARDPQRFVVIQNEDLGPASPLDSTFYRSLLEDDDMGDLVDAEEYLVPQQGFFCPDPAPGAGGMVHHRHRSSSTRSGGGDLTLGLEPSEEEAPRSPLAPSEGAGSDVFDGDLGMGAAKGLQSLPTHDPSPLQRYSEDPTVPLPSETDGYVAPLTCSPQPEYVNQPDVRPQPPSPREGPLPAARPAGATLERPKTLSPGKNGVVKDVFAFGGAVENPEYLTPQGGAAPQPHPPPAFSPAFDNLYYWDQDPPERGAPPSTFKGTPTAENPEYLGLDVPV

Compound COc1cc(OC)c(Cl)c(-c2ccc3c(NC(=O)c4ccc(N5CCNC(C)(C)C5)cc4)n[nH]c3n2)c1Cl [3D185] has an inhibition at 0.01 µM ([1]; 10 nM) of -7%, an inhibition at 0.1 µM ([1]; 100 nM) of -11% and an inhibition at 1 µM ([1]; 1000 nM) of -11%. For the same compound, the inhibition at 0.01 µM ([2]; 10 nM) was -4%, the inhibition at 0.1 µM ([2]; 100 nM) was 6% and the inhibition at 1 µM ([2]; 1000 nM) was 17%. It also gave an inhibition at 0.01 µM ([3]; 10 nM) of 2%, an inhibition at 0.1 µM ([3]; 100 nM) of 1% and an inhibition at 1 µM ([3]; 1000 nM) of -1%. For the same compound, the inhibition at 0.01 µM ([4]; 10 nM) was -6%, the inhibition at 0.1 µM ([4]; 100 nM) was -2% and the inhibition at 1 µM ([4]; 1000 nM) was -1%. It also gave an inhibition at 0.01 µM ([5]; 10 nM) of 4%, an inhibition at 0.1 µM ([5]; 100 nM) of -17% and an inhibition at 1 µM ([5]; 1000 nM) of -5%. It also gave an inhibition at 0.01 µM ([6]; 10 nM) of 16%, an inhibition at 0.1 µM ([6]; 100 nM) of 41% and an inhibition at 1 µM ([6]; 1000 nM) of 65%. The inhibition at 0.01 µM ([7]; 10 nM) was 3%, the inhibition at 0.1 µM ([7]; 100 nM) was 5% and the inhibition at 1 µM ([7]; 1000 nM) was -2%. The inhibition at 0.01 µM ([8]; 10 nM) was -7%, the inhibition at 0.1 µM ([8]; 100 nM) was -5% and the inhibition at 1 µM ([8]; 1000 nM) was 7%.
